Test results: patent US12544371B2, “Methods and compositions for treating acute lung injury and acute respiratory distress syndrome” (CalciMedica, Inc., priority 2020, dated 2026)
pIC50: −log10 of the molar value. “Also recorded” adds a separate entry of the source. Like-named read-outs stand apart in the source and are kept apart here.

How the values were obtained:
[1] = system: IL-2 released from human PBMCs; assay: Cytokine released from human PBMCs: IL-2; type: cell-based
Source text: (§1) CRAC channels may play a proximal role in a calcium-calcineurin pathway leading to cytokine release in immune cells.

[2] = system: IL-10 released from human PBMCs; assay: Cytokine released from human PBMCs: IL-10; type: cell-based; conditions: PBMC, mean of replicates
Source text: as §1

[3] = system: cytokine release from human lymphocytes; assay: In vitro studies of cytokine release from human lymphocytes; type: cell-based
[4] = Cardiovascular safety in telemetered cynomolgus monkey; type: in vivo
Source text: Compound 1 is a non-limiting example of a composition described herein that inhibits calcium release-activated calcium (CRAC) channels).

[5] = Repeat-dose toxicity study in rats; type: in vivo; conditions: rat
[6] = Repeat-dose toxicity study in monkeys; conditions: in vivo, monkey
Description: Hemolysis testing concluded that Compound 1 was compatible with human plasma and non-hemolytic in human blood.
(§2) Plasma concentrations of compound rise steadily during the 4-hour infusion, with Tmax achieved at the end of infusion (4 hours). After the end of infusion, there is a rapid and prominent distribution phase followed by a prolonged period of residual drug levels. The terminal elimination phase has not yet been fully characterized as it appears to be much longer than was anticipated based on pre-clinical PK data in mouse, rat, dog and monkey. Plasma concentrations during the terminal phase are approximately 5% of Cmax values and, as indicated above, to date there have been no clinically significant AEs reported during this phase. Plasma exposures, defined by AUC0-24 h, appear to be dose-proportional and reached a maximum of 6710 ng*h/mL in Group 5, which is 4.3-fold below the mean AUC24 h in monkey at the NOAEL (29,000 ng*hr/mL).

[7] = system: bacterial reverse mutation; assay: Ames bacterial reverse mutation assay; type: cell-based; conditions: in vitro
[8] = Rat model of acute pancreatitis (caerulein-induced), IV infusion; type: in vivo
[9] = Phase 1 single ascending dose study (Compound 1 Test 101), healthy subjects; type: in vivo, human
Source text: Two Phase 1 studies of N-(5-(6-Chloro-2,2-difluorobenzo[d][1,3]dioxol-5-yl)pyrazin-2-yl)-2-fluoro-6-methylbenzamide (Compound 1) have been conducted in healthy subjects: a single ascending dose (SAD) study (Compound 1 Test 101) and a multiple ascending dose (MAD) study (Compound 1 Test 102). In Compound 1 Test 101 (Table 1), 32 healthy subjects were enrolled in five groups and randomized in a 3:1 ratio to receive a single dose of active versus placebo. The dose levels for each group are noted in Table 1. The dose volume of the emulsion was fixed at 1.3 mL/kg for all subjects in the SAD study groups, and an injectable emulsion of Compound 1 or placebo was administered via a 4-hour IV infusion.
as §2

[10] = Long-term extension study of SAD and MAD subjects; type: in vivo, human
Source text: Subjects in Groups 4 and 5 of the SAD study and Groups 1 and 2 of the MAD study who received Compound 1 were followed for 1 year in a long-term extension study to assess for adverse events and serious adverse events. In addition, PK levels were drawn in all 4 groups on Day 270 to further characterize the terminal phase and the prolonged period of residual drug level.

[11] = PD/PK study in patients with acute pancreatitis (Compound 1 Test 202); type: in vivo, human
Description: In Compound 1 Test 202, a pharmacodynamic and pharmacokinetic study of Compound 1 in patients with acute pancreatitis, patients with AP (regardless of the presence of SIRS and/or hypoxemia) were administered a single IV infusion of 2.08 mg/kg of an injectable emulsion of Compound 1 and blood, plasma and serum were collected for analysis. It was planned to initially enroll 5 patients and then to enroll an additional 4 patients as needed. Ultimately, 7 patients were screened for the study, and all 7 enrolled in and completed the study. On Days 1 and 2, blood and plasma samples for PD and PK analyses, respectively, were obtained 30 minutes after completing the administration of Compound 1 and 24 hours from the start of the administration of Compound 1. In patients hospitalized at Day 5 and 10, blood and plasma samples were obtained; if discharged earlier, samples were obtained at the time of discharge. After discharge, patients returned to the hospital on Day 30 to provide final blood and plasma samples.

[12] = Animal models of acute pancreatitis and lung injury (general statements); type: in vivo
Source text: Preclinical data supports the use of CRAC inhibitors (e.g. N-(5-(6-Chloro-2,2-difluorobenzo[d][1,3]dioxol-5-yl)pyrazin-2-yl)-2-fluoro-6-methylbenzamide, Compound 1) in severe COVID-19 pneumonia.
For example, Compound 1 was effective following i.p. injection in mice (Wen et al., Gastroenterol, 149: 481-492, 2015), and following 4-hour i.v. infusion in rats (Waldron et al., J Physiol, 597.12: 3085-3105, 2019).

## Cc1cccc(F)c1C(=O)Nc1cnc(-c2cc3c(cc2Cl)OC(F)(F)O3)cn1 [Compound 1, N-(5-(6-Chloro-2,2-difluorobenzo[d][1,3]dioxol-5-yl)pyrazin-2-yl)-2-fluoro-6-methylbenzamide]
[1]; Homo sapiens, PBMC, mean of replicates, read-out: Mean IC50, IL-2 released from human PBMCs
  pIC50: 7.23
[1]; Homo sapiens, PBMC, single replicates, read-out: Replicate IC50 values, IL-2 released from human PBMCs
  pIC50: 7.15
[1]; single replicates, read-out: Replicate IC50 values, IL-2 released from human PBMCs
  pIC50: 7.33
[2]
  pIC50: 6.52
[3]
  inhibition of cytokine release from human lymphocytes: inhibits release of multiple cytokines; also recorded: potent, concentration-dependent inhibition
[4]; 1, 3 and 10 mg/kg, also seen in placebo treated animals
  cardiovascular data at lower doses: transient, non-dose-related, slight-to-moderate increases in systolic/diastolic arterial blood pressures and negative chronotropic effects (mild and non-adverse)
[4]; single telemetered cynomolgus monkey, 25 mg/kg IV
  clinical and cardiovascular effects: Dose-limiting adverse clinical and cardiovascular effects
[5]; in vivo, repeat-dose, rats, read-out: no observable adverse effect level (NOAEL)
  NOAEL: 25 mg/kg/day
[5]; repeat-dose toxicity study
  local irritation at the injection site: no evidence of compound-related or vehicle-related local irritation
[6]; NOAEL 3 mg/kg/day, read-out: mean AUC24 h in monkey at the NOAEL
  AUC(0-t): 29000 ng·h/mL
[6]; repeat-dose, monkeys, read-out: no observable adverse effect level (NOAEL)
  NOAEL: 3 mg/kg/day
[7]
  Ames bacterial reverse mutation assay result: negative
[8]
  lung myeloperoxidase activity (neutrophil infiltration): decrease
  mRNA levels of the cytokines TNFα and IL-6 (lung): decrease
[9]; SAD Group 5
  margin of AUC0-24 h below mean AUC24 h in monkey at the NOAEL: 4.3 fold
[9]; human, in vivo
  Tmax: 4 h
  cardiac function: heart rate, QTcF, cardiac troponin-T, B-type natriuretic peptide: no evidence of any treatment related effect
  clinically significant laboratory abnormalities: No laboratory abnormalities
  distribution compartments, non-compartmental PK analysis: three compartments
  dose proportionality of plasma exposure (AUC0-24 h): dose-proportional
  number of clinical AEs (all mild): three
  plasma concentrations during the terminal phase relative to Cmax: approximately 5 % of Cmax
  systolic or diastolic blood pressure: no evidence of any sustained treatment related increase
[9]; human, in vivo, 2.1 mg/kg
  AUC(0-t): 6710 ng·h/mL
[10]; 365 days
  number of mild AEs in the extension study: 1
[10]; healthy subjects followed for 365 days
  serious adverse events and adverse events rated moderate or severe, long-term follow-up: safe and no serious adverse events and no adverse events rated moderate or severe in intensity and no SAEs or AEs rated moderate or severe in intensity
[11]; 1 of 7 patients
  patients with moderate TEAEs: 14%
[11]; 2 of 7 patients, also SAEs, not considered drug related
  patients with severe TEAEs: 29%
[11]; 7 patients, single 2.08 mg/kg
  number of TEAEs: 7 TEAEs
[11]; 7 patients, single IV infusion of 2.08 mg/kg
  patients who experienced TEAEs: 3 patients
[11]; PK/PD Single Dose, admission 0
  Discharge IL-6 levels, patients with IL-6 ≥ 1000 pg/mL: 0
[11]; PK/PD Single Dose, admission 1
  Discharge IL-6 levels, patients with 150 pg/mL ≤ IL-6 < 1000 pg/mL: 0
[11]; of the 7 TEAEs
  TEAEs with causality Unlikely: 2 TEAEs
  TEAEs with causality Unrelated: 5 TEAEs
  mild TEAEs: 3 TEAEs
  moderate TEAEs: 2 TEAEs
  severe TEAEs (also SAEs): 2 TEAEs
[12]
  cytokines and neutrophil infiltration in lung tissue: inhibit
